These results are taken from PMC9919490, “Synthesis and Biological Evaluation of Novel Dispiro-Indolinones with Anticancer Activity” (Molecules, 2023).

The test system of data set [1] is HCT^wt cells. The data set can be described thus: MTT cytotoxicity assay, HCT^wt (p53 pos). The class given is cell-based. Particulars: 48 h. (Tetrazolium dyes change colour on reduction, which living cells bring about.)
Data set [2] in a line: Solubility in aqueous media (observation). It counts as physicochemical. Particulars: observed in acute toxicity pilot, doses > 2500 mg/kg not feasible. As for the experimental part: To select the doses, the pilot experiments were carried out on a minimum number of animals. […] When administered in large doses during autopsy in the abdominal cavities of the mice, on the inner wall and membranes of the abdominal organs, remnants of the non-absorbed drug were found in the form of white layers, indicating incomplete absorption and insufficient solubility of the agent. […] According to the data obtained from the trial experiment, in the main study—with intraperitoneal administration—a dose of 2500 mg/kg was used.

The term IC50 denotes the concentration that gives 50% inhibition. `CCOc1ccc(N2C(=O)C3(NC2=S)C(c2ccc(Cl)cc2)CN(C)C32C(=O)Nc3ccc(Br)cc32)cc1` (centres unmarked) [Compound 29]: the 50% inhibitory concentration (IC50) in data set [1] worked out at 14.1 ± 4.2 µM. Moreover, the “solubility in aqueous media” value in data set [2] is reported as “low solubility”.
